Measured values reported in the supplement of paper PMC10307832.

Legend:
Assay in all cases: relative viability (nuclei count vs DMSO), 5 days (fraction); higher = more cells survive
Imatinib + OSI-027 = compound: Cc1ccc(NC(=O)c2ccc(CN3CCN(C)CC3)cc2)cc1Nc1nccc(-c2cccnc2)n1 [Imatinib] + COc1cccc2cc(-c3nc([C@H]4CC[C@H](C(=O)O)CC4)n4ncnc(N)c34)[nH]c12 [OSI-027] (partner 0.5 µM)
Outline: (§1)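 Lung cancer cell lines in 1536-well plates got either a single drug or a fixed anchor-drug dose together with five library-drug doses (not always all listed) in √10 steps, by pin tool, on the day after seeding. Nuclei were counted after 5 days, and relative viability is the treated-to-vehicle ratio of nuclei counts. Values are medians of duplicate plates.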

Imatinib + Lapatinib = compound: Cc1ccc(NC(=O)c2ccc(CN3CCN(C)CC3)cc2)cc1Nc1nccc(-c2cccnc2)n1 [Imatinib] + CS(=O)(=O)CCNCc1ccc(-c2ccc3ncnc(Nc4ccc(OCc5cccc(F)c5)c(Cl)c4)c3c2)o1 [Lapatinib] (partner 2 µM)
Outline: as §1

Imatinib + Pictilisib = compound: Cc1ccc(NC(=O)c2ccc(CN3CCN(C)CC3)cc2)cc1Nc1nccc(-c2cccnc2)n1 [Imatinib] + CS(=O)(=O)N1CCN(Cc2cc3nc(-c4cccc5[nH]ncc45)nc(N4CCOCC4)c3s2)CC1 [Pictilisib] (partner 1 µM)
Outline: as §1

Imatinib + Linsitinib = compound: Cc1ccc(NC(=O)c2ccc(CN3CCN(C)CC3)cc2)cc1Nc1nccc(-c2cccnc2)n1 [Imatinib] + C[C@]1(O)C[C@@H](c2nc(-c3ccc4ccc(-c5ccccc5)nc4c3)c3c(N)nccn32)C1 [Linsitinib] (partner 1 µM)
Outline: as §1

Cell Line	relative viability (Imatinib + OSI-027; first compound 0.02 µM)	relative viability (Imatinib + OSI-027; first compound 0.06325 µM)	relative viability (Imatinib + OSI-027; first compound 0.2 µM)	relative viability (Imatinib + OSI-027; first compound 0.6325 µM)	relative viability (Imatinib + OSI-027; first compound 2 µM)	relative viability (Imatinib + Lapatinib; first compound 0.02 µM)	relative viability (Imatinib + Lapatinib; first compound 0.06325 µM)	relative viability (Imatinib + Lapatinib; first compound 0.2 µM)	relative viability (Imatinib + Lapatinib; first compound 0.6325 µM)	relative viability (Imatinib + Lapatinib; first compound 2 µM)	relative viability (Imatinib + Pictilisib; first compound 0.02 µM)	relative viability (Imatinib + Pictilisib; first compound 0.06325 µM)	relative viability (Imatinib + Pictilisib; first compound 0.2 µM)	relative viability (Imatinib + Pictilisib; first compound 0.6325 µM)	relative viability (Imatinib + Pictilisib; first compound 2 µM)	relative viability (Imatinib + Linsitinib; first compound 0.02 µM)	relative viability (Imatinib + Linsitinib; first compound 0.06325 µM)	relative viability (Imatinib + Linsitinib; first compound 0.2 µM)	relative viability (Imatinib + Linsitinib; first compound 0.6325 µM)	relative viability (Imatinib + Linsitinib; first compound 2 µM)
LXF-289	0.791	0.556	0.814	0.754	0.724	0.974	0.999	0.96	0.905	0.873	0.929	0.711	0.934	0.747	0.804	1.03	1.05	1.08	0.892	0.935
HCC-366	1.01		1.05	0.812	0.748	1.3		1.33	1.03	1.04	0.131	0.119	0.19	0.144	0.223	0.685		1.02	0.692	0.844
IA-LM						1.01	1.23	0.656	1.31	0.719	0.431	0.497	0.317	0.586	0.373	0.688	0.652	0.561	1.38	0.593
NCI-H1755	0.748	0.554	0.829	0.634	0.594	1.14	0.994	1.06	0.997	1.02	0.457	0.348	0.531	0.495	0.473	1.05	1.08		0.979	0.994
NCI-H460	0.743	1.09	0.819	0.566	0.503	1.41	0.872	1.36	1.17	1.09	0.465	0.277	0.335	0.506	0.3	1.11		0.964	0.801	1.02
SW 1573	0.708	0.24	0.685	0.573	0.548	1.33	0.676	1.28	0.983	1.17	0.623	0.501	0.528	0.561	0.483	0.879	0.965	0.799	0.685	0.809
NCI-H2228	0.755		0.489	0.423	0.478	1.31	1.02	1.03	1.01	0.843	0.525	0.178	0.427	0.534	0.52	0.742	0.555	0.678	0.482	0.638
201T	0.865	0.798	0.762	0.761		0.993			0.989	0.989	0.711		0.664	0.729	0.679	1.03		1.03	1.03	0.957
ABC-1	0.516		0.504	0.521	0.564	1.25	0.727	1.31	0.312	1.11	0.685		0.669	0.914	0.679	0.727		0.778	0.849	0.779
NCI-H2023	0.524	0.303	0.426	0.314	0.334						0.247	0.191	0.224	0.213	0.217	0.778	0.871	0.796	0.682	0.719
NCI-H2126	0.851	0.68	0.673	0.604	0.678			0.828	0.684	0.704	0.507		0.484	0.452	0.475	0.724		0.728	0.742	0.758
COR-L 105	0.771	0.739	0.65	0.653	0.685	0.398	0.361	0.351	0.368	0.385	0.37	0.372	0.508	0.406	0.385	1.08	1.14	1	1.02	0.978
UMC-11	0.514	0.542	0.64	0.499	0.456	1.01	1.1	1.25	0.995	0.994	0.81	0.749	1	1.06	0.837	1.14	1.57	1.05	1.08	1.06
NCI-H2342	0.667	0.539	0.636	0.596	0.665															
SK-LU-1	0.332	0.409	0.319	0.264	0.365	1.08	1.1	1.11		0.82	0.738	0.682	0.633		0.611	1.58	1.22	1.15		0.951
NCI-H1650	0.629	0.481	0.39	0.544	0.512	0.797	0.489	0.845	0.816	0.886	0.638	0.338	0.589	0.574	0.661					
NCI-H2085	0.823	0.432	0.717	0.724	0.588	0.754	0.591	0.733	0.819	0.694	0.448	0.462	0.472	0.594	0.434	0.93	0.823	1.11	0.95	0.825
NCI-H1793	0.298		0.263	0.249	0.204	0.841		0.536	0.647	0.831	0.272		0.332	0.412	0.413	1.09		1.06	0.96	
RERF-LC-KJ	0.598	0.418	0.544	0.492	0.551		0.853	0.498	0.819	0.763	0.636	0.422	0.541	0.487	0.498	0.879	1.08	1.03	0.872	0.94
HCC-78	0.332	0.387	0.389	0.366	0.314	0.924	0.467	0.676		1.04	0.208	0.177	0.198	0.207	0.2	0.444	0.528	0.563	0.524	0.576

Cell Line	relative viability (Imatinib + OSI-027; first compound 0.02 µM)	relative viability (Imatinib + OSI-027; first compound 0.06325 µM)	relative viability (Imatinib + OSI-027; first compound 0.2 µM)	relative viability (Imatinib + OSI-027; first compound 0.6325 µM)	relative viability (Imatinib + OSI-027; first compound 2 µM)	relative viability (Imatinib + Lapatinib; first compound 0.02 µM)	relative viability (Imatinib + Lapatinib; first compound 0.06325 µM)	relative viability (Imatinib + Lapatinib; first compound 0.2 µM)	relative viability (Imatinib + Lapatinib; first compound 0.6325 µM)	relative viability (Imatinib + Lapatinib; first compound 2 µM)	relative viability (Imatinib + Pictilisib; first compound 0.02 µM)	relative viability (Imatinib + Pictilisib; first compound 0.06325 µM)	relative viability (Imatinib + Pictilisib; first compound 0.2 µM)	relative viability (Imatinib + Pictilisib; first compound 0.6325 µM)	relative viability (Imatinib + Pictilisib; first compound 2 µM)	relative viability (Imatinib + Linsitinib; first compound 0.02 µM)	relative viability (Imatinib + Linsitinib; first compound 0.06325 µM)	relative viability (Imatinib + Linsitinib; first compound 0.2 µM)	relative viability (Imatinib + Linsitinib; first compound 0.6325 µM)	relative viability (Imatinib + Linsitinib; first compound 2 µM)
LCLC-103H	0.453	0.375	0.548	0.415	0.433						0.67		0.692	0.578				1.08	1.03	
NCI-H1792	0.84	0.549	0.697	0.162	0.673	0.859	1.08	0.954	0.942	0.838	0.264	0.198	0.214	0.237	0.277	0.623	0.332	0.502	0.317	0.566
NCI-H358	0.861	0.382	0.843	0.635	0.855	0.478		0.445	0.448	0.392	0.292		0.326	0.275	0.347	0.726		0.851	0.669	0.863
NCI-H1355	0.386		0.388	0.315	0.432	1.04		1.1	1.02	0.99	0.432		0.434	0.468	0.536	0.865		0.846	0.841	0.871
PC-14	0.991	0.282	0.856	0.76	0.833	0.388	0.24	0.301	0.321	0.317	0.69		0.874	0.688	0.859		0.97	1.06	0.984	1.01
A-427	0.503		0.5	0.447	0.47			1.05	1.12	0.952	0.749		0.692	0.739	0.663	1.11		1.11	1.17	1.08
BEN	0.285		0.262	0.287	0.302		0.465	0.725	0.697	0.54	0.609	0.383	0.619	0.491	0.673	0.908	0.785	0.921	0.837	0.969
Calu-6						1.24	1.23	1.27	1.16	1.13	1.18	1.11	1.16	0.887	0.89	0.993	0.997	1.07	0.967	1.04
NCI-H650	0.557	0.496	0.51	0.544	0.459	1.02	1.16	1	1.11	0.85	1.09	1.01	0.855	0.885		1.27	0.86	0.95	1.05	0.861
NCI-H3122	1.11	0.831	1.09		1.1	1.03	1.04		1.02	0.989	0.647	0.551	0.572	0.666	0.679	1	1.13	1.14	1.03	1.04
NCI-H838	0.407	0.389	0.406	0.407	0.421						0.447	0.55	0.519	0.465	0.499	1.12	1.37	1.3	1.03	1.02
NCI-H2170	0.67	0.602	0.769	0.584	0.625	0.266	0.28	0.282	0.263	0.245	0.292	0.334	0.283	0.254	0.26					
NCI-H1666						0.679	0.811	0.565	0.748	0.844	0.327	0.406	0.381	0.48	0.393	0.718	0.849		0.986	0.857
NCI-H1648	0.253	0.266	0.243		0.237															
NCI-H441	0.675	0.561	0.632	0.581	0.563						0.501	0.437	0.578	0.502	0.435	0.644	0.485	0.573	0.47	0.546
ChaGo-K-1	0.444	0.511	0.538	0.56	0.491						0.88	0.497	0.589							
NCI-H1299						0.999	1	0.988	0.956	0.988	0.868	1.07	0.833	0.954	0.776	1.14	1.08	1.04	0.983	
NCI-H1703						1.01	1.1	0.439	0.276	0.281		0.268	0.219	0.256	0.235	0.629	0.204	0.449	0.418	0.138
EBC-1						0.182	0.187	0.216	0.195	0.168	0.425	0.405	0.387	0.304	0.334	1.18	0.974	1.07	1.04	0.818
NCI-H1734	0.656	0.54	0.64	0.609	0.5	1.26		1.3	1.1		0.515		0.559	0.428						
